The record followed here is patent publication US12479856B2, “Pharmaceutical compounds for the treatment of complement mediated disorders” (Achillion Pharmaceuticals, Inc., priority 2019, dated 2025).

pIC50: −log10 of the molar value.

One test addresses T1, Human complement C1s enzyme (Homo sapiens, UniProt P09871).
T1 construct: purified from human serum, Complement Technology, Inc; purchased Complement Technology, Inc; host or cells: human serum (plasma-derived natural protein)
T1 sequence (P09871 438-688 limits assumed): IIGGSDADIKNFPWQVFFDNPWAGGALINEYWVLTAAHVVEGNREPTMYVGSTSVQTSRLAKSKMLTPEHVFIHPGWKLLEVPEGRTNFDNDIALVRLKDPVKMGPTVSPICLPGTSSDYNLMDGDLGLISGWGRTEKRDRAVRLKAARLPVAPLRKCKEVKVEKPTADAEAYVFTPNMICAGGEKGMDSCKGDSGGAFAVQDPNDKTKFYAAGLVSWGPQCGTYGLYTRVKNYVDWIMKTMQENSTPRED
T1 sequence (P09871 16-437 partner limits assumed): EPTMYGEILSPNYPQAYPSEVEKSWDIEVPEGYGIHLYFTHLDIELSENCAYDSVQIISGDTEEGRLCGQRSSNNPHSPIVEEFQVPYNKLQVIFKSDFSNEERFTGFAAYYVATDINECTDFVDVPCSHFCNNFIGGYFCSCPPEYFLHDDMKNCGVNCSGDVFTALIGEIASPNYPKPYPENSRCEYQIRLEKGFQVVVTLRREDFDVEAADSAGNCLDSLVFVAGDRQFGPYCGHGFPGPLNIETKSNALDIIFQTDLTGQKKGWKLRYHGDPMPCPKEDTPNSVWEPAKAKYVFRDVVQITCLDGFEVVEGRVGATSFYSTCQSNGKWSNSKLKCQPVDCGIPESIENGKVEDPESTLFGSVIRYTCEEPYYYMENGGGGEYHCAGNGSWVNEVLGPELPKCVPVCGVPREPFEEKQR
Nature of the test: Human C1s Enzyme Assay. The class given is biochemical. As to conditions: Table 2; C1s purified from human serum, 1.16 nM; substrate Z-L-Lys-SBzl; read-out: C1s Protease Activity. The gist of the method:
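Serum-purified human C1s (1.16 nM) preincubated 5 min at RT with compound in 50 mM Tris, 1 M NaCl, pH 7.5. Z-L-Lys-SBzl and DTNB (100 μM each) then added; A405 followed every 30 s for 30 min. IC50 from nonlinear regression of reaction rates versus compound concentration.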
On to `C[C@H](OCc1ccccc1)[C@H](OCc1ccccc1)[C@@H](OCc1ccccc1)[C@H](CN(CC(=O)N1CC2(C[C@H]1C(=O)NCc1cc(C(=N)N)cs1)OCCO2)C(=O)OCc1ccccc1)OCc1ccccc1` [Compound 87, benzyl (2-((S)-8-(((4-carbamimidoylthiophen-2-yl)methyl)carbamoyl)-1,4-dioxa-7-azaspiro[4.4]nonan-7-yl)-2-oxoethyl)((2S,3S,4S,5S)-2,3,4,5-tetrakis(benzyloxy)hexyl)carbamate], for which the pIC50 was under 6.00.

`C[C@H](OCc1ccccc1)[C@H](OCc1ccccc1)[C@@H](OCc1ccccc1)[C@H](CN(CC(=O)N1CC2(C[C@H]1C(=O)NCc1nc(C(=N)N)cs1)OCCO2)C(=O)OCc1ccccc1)OCc1ccccc1` [Compound 89, benzyl (2-((S)-8-(((4-carbamimidoylthiazol-2-yl)methyl)carbamoyl)-1,4-dioxa-7-azaspiro[4.4]nonan-7-yl)-2-oxoethyl)((2S,3S,4S,5S)-2,3,4,5-tetrakis(benzyloxy)hexyl)carbamate]: the pIC50 was under 6.00.

Staying with this test, now noted: Table 3; C1s purified from human serum, 1.16 nM; substrate Z-L-Lys-SBzl; read-out: C1s Protease Activity.
With `N=C(N)c1csc(NC(=O)[C@@H]2CC3(CN2C(=O)CNC(=O)c2ccc(Oc4ccccc4)cc2)OCCO3)c1` [Compound 91, (S)-N-(4-carbamimidoylthiophen-2-yl)-7-((4-phenoxybenzoyl)glycyl)-1,4-dioxa-7-azaspiro[4.4]nonane-8-carboxamide], the pIC50 is under 6.00.

Consider `N=C(N)c1ccc(CNC(=O)[C@@H]2CC3(CN2C(=O)CNC(=O)c2ccc(Oc4ccccc4)cc2)OCCO3)s1` [Compound 92, (S)-N-((5-carbamimidoylthiophen-2-yl)methyl)-7-((4-phenoxybenzoyl)glycyl)-1,4-dioxa-7-azaspiro[4.4]nonane-8-carboxamide], for which the pIC50 is over 7.00.

Consider `C[C@@]12C[C@@H]1N(C(=O)CNC(=O)c1ccc(Oc3ccccc3)cc1)[C@H](C(=O)NCc1cc(C#N)cs1)C2` [Compound 93, (1S,3S,5S)-N-((4-cyanothiophen-2-yl)methyl)-5-methyl-2-((4-phenoxybenzoyl)glycyl)-2-azabicyclo[3.1.0]hexane-3-carboxamide], for which the pIC50 is under 6.00.

For `C[C@@]12C[C@@H]1N(C(=O)CNC(=O)c1ccc(Oc3ccccc3)cc1)[C@H](C(=O)NCc1cc(/C(N)=N/O)cs1)C2` [Compound 94, (1S,3S,5S)-N-((4-((Z)-N′-hydroxycarbamimidoyl)thiophen-2-yl)methyl)-5-methyl-2-((4-phenoxybenzoyl)glycyl)-2-azabicyclo[3.1.0]heptane-3-carboxamide], the pIC50 was under 6.00.

Take `C[C@@]12C[C@@H]1N(C(=O)CNC(=O)c1ccc(Oc3ccc(S(F)(F)(F)(F)F)cc3)cc1)[C@H](C(=O)NCc1cc(C(=N)N)cs1)C2` [Compound 95, (1S,3S,5S)-N-((4-carbamimidoylthiophen-2-yl)methyl)-5-methyl-2-((4-(4-(pentafluoro-16-sulfaneyl)phenoxy)benzoyl)glycyl)-2-azabicyclo[3.1.0]hexane-3-carboxamide]: the pIC50 is over 7.00.

Regarding `N=C(N)c1csc(CNC(=O)[C@@H]2C[C@@H](c3ccccc3)CN2C(=O)CNC(=O)c2ccc(Oc3ccccc3)cc2)c1` [Compound 97, (2S,4S)-N-((4-carbamimidoylthiophen-2-yl)methyl)-1-((4-phenoxybenzoyl)glycyl)-4-phenylpyrrolidine-2-carboxamide], the pIC50 is over 7.00.

`N=C(N)c1csc(CNC(=O)[C@@H]2C[C@@H](C(F)(F)F)CN2C(=O)CNC(=O)c2ccc(Oc3ccccc3)cc2)c1` [Compound 98, (2S,4R)-N-((4-carbamimidoylthiophen-2-yl)methyl)-1-((4-phenoxybenzoyl)glycyl)-4-(trifluoromethyl)pyrrolidine-2-carboxamide]: the pIC50 is over 7.00.

Take `N=C(N)c1csc(CNC(=O)[C@@H]2C[C@H](C(F)(F)F)CN2C(=O)CNC(=O)c2ccc(Oc3ccccc3)cc2)c1` [Compound 100, (2S,4S)-N-((4-carbamimidoylthiophen-2-yl)methyl)-1-((4-phenoxybenzoyl)glycyl)-4-(trifluoromethyl)pyrrolidine-2-carboxamide]: the pIC50 is over 7.00.

Turning to `N=C(N)c1csc(CNC(=O)[C@@H]2C[C@@H](OC(F)F)CN2C(=O)CNC(=O)c2ccc(Oc3ccccc3)cc2)c1` [Compound 101, (2S,4R)-N-((4-carbamimidoylthiophen-2-yl)methyl)-4-(difluoromethoxy)-1-((4-phenoxybenzoyl)glycyl)pyrrolidine-2-carboxamide], the pIC50 is over 7.00.

For `N=C(N)c1csc(CNC(=O)[C@@H]2C[C@@H]3CCCC[C@@H]3N2C(=O)CNC(=O)c2ccc(Oc3ccccc3)cc2)c1` [Compound 102, (2S,3aS,7aS)-N-((4-carbamimidoylthiophen-2-yl)methyl)-1-((4-phenoxybenzoyl)glycyl)octahydro-1H-indole-2-carboxamide], the pIC50 was over 7.00.

For `N=C(N)c1csc(CNC(=O)[C@@H]2C[C@H](Oc3ccc(F)cc3)CN2C(=O)CNC(=O)c2ccc(Oc3ccccc3)cc2)c1` [Compound 103, (2S,4S)-N-((4-carbamimidoylthiophen-2-yl)methyl)-4-(4-fluorophenoxy)-1-((4-phenoxybenzoyl)glycyl)pyrrolidine-2-carboxamide], the pIC50 was over 7.00.

For `Cc1cccc(O[C@H]2C[C@@H](C(=O)NCc3cc(C(=N)N)cs3)N(C(=O)CNC(=O)c3ccc(Oc4ccccc4)cc3)C2)c1` [Compound 104, (2S,4S)-N-((4-carbamimidoylthiophen-2-yl)methyl)-1-((4-phenoxybenzoyl)glycyl)-4-(m-tolyloxy)pyrrolidine-2-carboxamide], the pIC50 was over 7.00.

For the molecule `Cc1ccccc1O[C@H]1C[C@@H](C(=O)NCc2cc(C(=N)N)cs2)N(C(=O)CNC(=O)c2ccc(Oc3ccccc3)cc2)C1` [Compound 105, (2S,4S)-N-((4-carbamimidoylthiophen-2-yl)methyl)-1-((4-phenoxybenzoyl)glycyl)-4-(o-tolyloxy)pyrrolidine-2-carboxamide], the pIC50 was over 7.00.

As for `N=C(N)c1csc(CNC(=O)[C@@H]2C[C@](F)(CF)CN2C(=O)CNC(=O)c2ccc(Oc3ccccc3)cc2)c1` [Compound 106, (2S,4R)-N-((4-carbamimidoylthiophen-2-yl)methyl)-4-fluoro-4-(fluoromethyl)-1-((4-phenoxybenzoyl)glycyl)pyrrolidine-2-carboxamide], the pIC50 is over 7.00.

Take `C[C@@]12C[C@@H]1N(C(=O)CNC(=O)c1ccc(Oc3ccccc3)cc1)[C@H](C(=O)NCc1ccc(C(=N)N)s1)C2` [Compound 107, (1S,3S,5S)-N-((5-carbamimidoylthiophen-2-yl)methyl)-5-methyl-2-((4-phenoxybenzoyl)glycyl)-2-azabicyclo[3.1.0]hexane-3-carboxamide]: the pIC50 was over 7.00.

As for `N=C(N)c1csc(CNC(=O)[C@@H]2C[C@H](Oc3cccc(F)c3)CN2C(=O)CNC(=O)c2ccc(Oc3ccccc3)cc2)c1` [Compound 108, (2S,4S)-N-((4-carbamimidoylthiophen-2-yl)methyl)-4-(3-fluorophenoxy)-1-((4-phenoxybenzoyl)glycyl)pyrrolidine-2-carboxamide], the pIC50 was over 7.00.
